Experimental data as given in patent US20140357512A1, “HISTONE DEACETYLASE (HDAC) BIOMARKERS IN MULTIPLE MYELOMA” (priority 2013, published 2014).

Test system: human myeloma cell line MM.1S
Assay: SILAC acetylated-lysine peptide profiling, HDAC inhibitor vs DMSO (light/heavy ratio)
Assay type: cell-based
From the text: An embodiment of the invention comprises utilizing the SILAC method in order to quantitate changes in protein expression between two or more populations of cells. The SILAC method is a technique based on mass spectrometry that detects differences in protein abundance among samples using non-radioactive isotopic labeling. The SILAC method is known in the art, and described in detail in Ong et al., “Stable Isotope Labeling by Amino Acids in Cell Culture, SILAC, as a Simple and Accurate Approach to Expression Proteomics”, Molecular & Cellular Proteomics, vol. 1, pp. 376-386 (2002), which is incorporated herein by reference in its entirety.
Briefly, the SILAC method involves growing two populations of cells in cell culture. The first population of cells is grown in growth media containing normal amino acids (“normal media”). The second population of cells is grown in media lacking a standard essential amino acid (such as lysine), but is then supplemented with a non-radioactive, isotopically labeled form of that essential amino acid (such as lysine labeled with ^13C atoms, rather than normal ^12C atoms), which is called “heavy media”. When the two populations of cells are each growing in the medium, they incorporate the amino acids into all of their proteins. The growth of cells maintained in the heavy media is no different from that in normal media. All peptides containing the heavy amino acids are heavier than their normal counterparts. The cells from each of the two populations of cells are lysed. The lysates from each of the two cell populations are then combined. The combined cell lysates are then analyzed by mass spectrometry. Pairs of chemically identical peptides of different stable isotope composition can be differentiated in a mass spectrometer due to their difference in mass. The ratio of peak intensities in the mass spectrum for such peptide pairs reflects the abundance ratio for the two proteins.
This example describes SILAC studies that were performed to compare the effects of three different HDAC inhibitors (Compound A, Compound B, and tubastatin A) to a control on a human multiple myeloma cell line. The HDAC inhibitors were also compared amongst themselves to determine differences in their effects.
A human myeloma cell line MM.1S was grown using either ^12C (light) or ^13C (heavy) lysine containing culture medium. The “heavy” cells were treated with DMSO as the control, and the “light” cells were treated with a single HDAC inhibitor at 37° C. for 6 hours. The heavy and light cells were lysed, and the lysates were mixed in 1:1 ratio and digested with the protease trypsin. The acetylated lysine containing peptides (due to the action of the HDAC inhibitor) in the digested peptide pool were captured by a non-specific anti-acetylated lysine antibody cocktail (the antibodies identify both light and heavy acetylated peptides), and subjected to mass spectrometry analysis in order to identify thousands of individual peptides.
Thousands of peptides were identified in pairs (^12C and ^13C) due to their known mass differences. The amino acid sequence and quantitative ratio (Light/Heavy) of a given peptide in two differentially treated cell lysates were then determined and annotated with their possible protein (gene) sources.
As stated above, three HDAC inhibitors (Compound A, Compound B, and Tubastatin A) were used. Thus, the SILAC method was performed three times, with a different HDAC inhibitor compared to a control each time. Accordingly, there are three pairs of quantitative data in the table below, i.e., Compound A:DMSO, Compound B:DMSO, and Tubastatin A:DMSO. A cut-off of 1.30 fold of change (increase or decrease) was then used to determine “changed” or “+” in the table, and any peptides with a fold of change less than 1.3 fold were determined to be “unchanged” or “0” in the table. Those peptides that were not identified were marked as “NA” in the table. […]

O=C(CCCCCCNC(=O)c1cnc(N(c2ccccc2)c2ccccc2)nc1)NO [Compound A, 2-(diphenylamino)-N-(7-(hydroxyamino)-7-oxoheptyl)pyrimidine-5-carboxamide]
L/H ratio of acetylated peptide SELK(ac)HAK (SEQ ID NO: 696, Isoform Long of Delta-1-pyrroline-5-carboxylate synthase [68], ALDH18A1): 0.66 log 2 | L/H ratio of acetylated peptide SCGLNPK(ac)LEK (SEQ ID NO: 697, Isoform 5 of Transcriptional regulator ATRX [468], ATRX): 0.66 log 2 | L/H ratio of acetylated peptide EVK(ac)VLLDQLR (SEQ ID NO: 698, Isoform 1 of Adipocyte plasma membrane-associated protein [250], C20orf3): 0.67 log 2 | L/H ratio of acetylated peptide KAVTK(ac)VQK (SEQ ID NO: 699, Histone H2B type 2-F [21], HIST2H2BF): 0.67 log 2 | L/H ratio of acetylated peptide ILQK(ac)QGFK (SEQ ID NO: 700, Dihydrolipoyl dehydrogenase mitochondrial [267], DLD): 0.67 log 2 | L/H ratio of acetylated peptide NK(ac)FGAPQK (SEQ ID NO: 701, Trifunctional enzyme subunit alpha mitochondrial [353], HADHA): 0.68 log 2 | L/H ratio of acetylated peptide VTAVHK(ac)ANIMK (SEQ ID NO: 702, Isocitrate dehydrogenase [NAD] subunit gamma mitochondrial [221], IDH3G): 0.68 log 2 | L/H ratio of acetylated peptide ACPEK(ac)HFAFK (SEQ ID NO: 703, Protein FAM3C [67], FAM3C): 0.68 log 2 | L/H ratio of acetylated peptide KPTLDK(ac)PSPETFVK (SEQ ID NO: 704, Estradiol 17-beta-dehydrogenase 12 [249], HSD17B12): 0.68 log 2 | L/H ratio of acetylated peptide QLAQK(ac)YNCDK (SEQ ID NO: 705, Ubiquitin-60S ribosomal protein L40 [88], UBA52): 0.68 log 2 | L/H ratio of acetylated peptide […](ac)EDVK (SEQ ID NO: 706, Isoform 1 of ATP synthase subunit d mitochondrial [95], ATP5H): 0.68 log 2 | L/H ratio of acetylated peptide […](ac)TLSK (SEQ ID NO: 707, Isoform 2 of PDZ domain-containing protein 2 [1726], PDZD2): 0.69 log 2 | L/H ratio of acetylated peptide ADK(ac)LAEEHSS (SEQ ID NO: 708, ATP synthase subunit beta mitochondrial [522], ATP5B): 0.70 log 2 | L/H ratio of acetylated peptide DFGSFDK(ac)FK (SEQ ID NO: 709, Superoxide dismutase [Mn] mitochondrial [130], SOD2): 0.70 log 2 | L/H ratio of acetylated peptide KIDK(ac)YTEVLK (SEQ ID NO: 710, 60S ribosomal protein L13a [191], SNORD32A, RPL13A, SNORD33, SNORD34): 0.70 log 2 | L/H ratio of acetylated peptide CSK(ac)LPSSTK(ac)SGWPR (SEQ ID NO: 711, cDNA FLJ75110 highly similar to Homo sapiens PHD finger protein 15 (PHF15) mRNA 3[2:38], PHF15): 0.70 log 2 | L/H ratio of acetylated peptide KAINK(ac)AQK (SEQ ID NO: 712, Histone H2B type 1-M [21], HIST1H2BM): 0.70 log 2 | L/H ratio of acetylated peptide EFPEK(ac)QELHR (SEQ ID NO: 713, Protein zer-1 homolog [584], ZER1): 0.70 log 2 | L/H ratio of acetylated peptide TDLEK(ac)[…] (SEQ ID NO: 714, Putative annexin A2-like protein [157], ANXA2P2): 0.71 log 2 | L/H ratio of acetylated peptide […](ac)ASMK (SEQ ID NO: 715, Putative annexin A2-like protein [115], ANXA2P2): 0.72 log 2 | L/H ratio of acetylated peptide LTCYLCK(ac)QK (SEQ ID NO: 716, Isoform 1 of Bromodomain-containing protein 1 [33]1, BRD1): 0.72 log 2 | L/H ratio of acetylated peptide AINK(ac)AQK(ac)K (SEQ ID NO: 717, Histone H2B type 1-M [21:24], HIST1H2BM): 0.72 log 2 | L/H ratio of acetylated peptide KGIEK(ac)NLGIGK (SEQ ID NO: 718, Malate dehydrogenase mitochondrial [301], MDH2): 0.72 log 2 | L/H ratio of acetylated peptide DNGK(ac)[…] (SEQ ID NO: 719, ATP synthase subunit alpha mitochondrial [305], ATP5A1): 0.72 log 2 | L/H ratio of acetylated peptide QLYNIYAK(ac)HTK (SEQ ID NO: 720, Putative ATP-dependent Clp protease proteolytic subunit mitochondrial [211], CLPP): 0.72 log 2 | L/H ratio of acetylated peptide GKGDK(ac)AQIEK (SEQ ID NO: 721, 60 kDa heat shock protein mitochondrial [364], HSPD1): 0.73 log 2 | L/H ratio of acetylated peptide K(ac)FLVHNVK (SEQ ID NO: 722, 60S ribosomal protein L32 [76], RPL32): 0.73 log 2 | L/H ratio of acetylated peptide GLIK(ac)LVSK (SEQ ID NO: 723, 40S ribosomal protein S25 [98], RPS25): 0.73 log 2 | L/H ratio of acetylated peptide IGFAEK(ac)VAAK (SEQ ID NO: 724, Isoform Mitochondrial of Fumarate hydratase mitochondrial [292], FH): 0.73 log 2 | L/H ratio of acetylated peptide (ac)AEK(ac)FDCHYCR (SEQ ID NO: 725, four and a half LIM domains protein 1 isoform 5 [20], FHL1): 0.73 log 2 | L/H ratio of acetylated peptide […](ac)VIPK (SEQ ID NO: 726, Endoplasmic reticulum resident protein 29 [48], ERP29): 0.73 log 2 | L/H ratio of acetylated peptide […](ac)SVAR (SEQ ID NO: 727, 60S ribosomal protein L7a [245], RPL7A, SNORD24): 0.73 log 2 | L/H ratio of acetylated peptide TITMK(ac)QLLR (SEQ ID NO: 728, Branched-chain-amino-acid aminotransferase [281], BCAT2): 0.73 log 2 | L/H ratio of acetylated peptide SK(ac)FVLVK (SEQ ID NO: 729, Endoplasmic reticulum resident protein 29 [54], ERP29): 0.74 log 2 | L/H ratio of acetylated peptide LVEDTK(ac)HRPK (SEQ ID NO: 730, 39S ribosomal protein L9 mitochondrial [87], MRPL9): 0.74 log 2
